# Measurements: patent US20230146675A1, “PYRIMIDO[5,4-d]PYRIMIDINE DERIVATIVES AS ENT INHIBITORS FOR THE TREATMENT OF CANCERS, AND COMBINATION THEREOF WITH ADENOSINE RECEPTOR ANTAGONISTS” (ITEOS BELGIUM SA, priority 2020, published 2023)
# Biological target: T1, human ENT1 (Homo sapiens, UniProt Q99808)
# T1 sequence (Q99808 1-456): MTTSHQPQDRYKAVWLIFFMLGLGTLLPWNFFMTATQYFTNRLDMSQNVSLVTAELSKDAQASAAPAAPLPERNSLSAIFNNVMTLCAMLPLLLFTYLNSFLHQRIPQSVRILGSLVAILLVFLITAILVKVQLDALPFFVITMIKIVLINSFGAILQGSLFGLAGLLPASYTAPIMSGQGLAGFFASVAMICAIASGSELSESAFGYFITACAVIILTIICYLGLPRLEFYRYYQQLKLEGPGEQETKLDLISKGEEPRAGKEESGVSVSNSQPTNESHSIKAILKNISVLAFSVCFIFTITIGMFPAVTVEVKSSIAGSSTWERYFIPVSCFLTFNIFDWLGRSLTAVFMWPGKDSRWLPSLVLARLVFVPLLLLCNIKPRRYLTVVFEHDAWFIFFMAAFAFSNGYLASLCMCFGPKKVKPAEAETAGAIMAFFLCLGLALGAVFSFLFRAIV
# Test: ENT1 binding assay (competition with Sahenta-DY647 on JAR cells)
# Parameters: JAR cells expressing ENT1 were bought from ATCC; host or cells: JAR cells
# Details: binned IC50
# Description: Purpose. […] By measuring the fluorescence at the end of the assay we could assess the binding potency of the compounds of the present invention.
# JAR cells were resuspended in the described buffer. Compounds of the present invention and Sahenta-DY647 were diluted 200× in the described buffer.
# The total volume of the reaction was 100 μL (50 μL of cells, 25 μL of the compounds of the present invention and 25 μL of Sahenta-DY647) in a 96 well plate, U-bottom (Greiner®, #650-180). The plates were washed 2× by centrifugation (4 min, 400 rcf at 4° C.) in the same buffer.
row,SMILES,IC50 [nM]
1,"COCCN(CCOC)c1nc(N2CCC(OC)CC2)c2nc(N(CCOC)CCOC)nc(NCc3ccccc3)c2n1 [Compound 49, N4-benzyl-N2,N2,N6,N6-tetrakis(2-methoxyethyl)-8-(4-methoxypiperidin-1-yl)pyrimido[5,4-d]pyrimidine-2,4,6-triamine]",< 100
2,"COCCN(CCOC)c1nc(N2CCC(OC)CC2)c2nc(N(CCOC)CCOC)nc(N3CCCCC3)c2n1 [Compound 318, N2,N2,N6,N6-tetrakis(2-methoxyethyl)-4-(4-methoxypiperidin-1-yl)-8-(piperidin-1-yl)pyrimido[5,4-d]pyrimidine-2,6-diamine]",500 to 1000
3,"COCCN(CCOC)c1nc(N2CCC(OC)CC2)c2nc(N(CCO)CCO)nc(N3CC(=O)N(C)C(C)C3)c2n1 (stereo not shown) [Compound 309, 4-(2-(bis(2-hydroxyethyl)amino)-6-(bis(2-methoxyethyl)amino)-8-(4-methoxypiperidin-1-yl)pyrimido[5,4-d]pyrimidin-4-yl)-1,6-dimethylpiperazin-2-one]",100 to 500
4,"COCCN(CCOC)c1nc(N2CCN(C)C(=O)C2)c2nc(N(CCOC)CCOC)nc(N3CCS(=O)(=O)CC3)c2n1 [Compound 188, 4-(2,6-bis(bis(2-methoxyethyl)amino)-8-(1,1-dioxidothiomorpholino)pyrimido[5,4-d]pyrimidin-4-yl)-1-methylpiperazin-2-one]",100 to 500
5,"COCCN(CCOC)c1nc(N2CCC(OC)CC2)c2nc(N(CCOC)CCOC)nc(NCc3cnc(Cl)s3)c2n1 [Compound 160, N4-((2-chlorothiazol-5-yl)methyl)-N2,N2,N6,N6-tetrakis(2-methoxyethyl)-8-(4-methoxypiperidin-1-yl)pyrimido[5,4-d]pyrimidine-2,4,6-triamine]",500 to 1000
6,"COCCN(CCOC)c1nc(N2CCN(C)C(=O)C2)c2nc(N3CCN(C(=O)OC)CC3)nc(N3CCC(OC)CC3)c2n1 [Compound 284, methyl 4-(6-(bis(2-methoxyethyl)amino)-4-(4-methoxypiperidin-1-yl)-8-(4-methyl-3-oxopiperazin-1-yl)pyrimido[5,4-d]pyrimidin-2-yl)piperazine-1-carboxylate]",500 to 1000
7,"COCCN(CCOC)c1nc(N2CCn3cccc3C2)c2nc(N(CCOC)CCOC)nc(N3CCN(C)C(=O)C3)c2n1 [Compound 258, 4-(2,6-bis(bis(2-methoxyethyl)amino)-8-(3,4-dihydropyrrolo[1,2-a]pyrazin-2(1H)-yl)pyrimido[5,4-d]pyrimidin-4-yl)-1-methylpiperazin-2-one]",< 100
8,"COCCN(CCOC)c1nc(N2CCC(CO)C2)c2nc(N(CCOC)CCOC)nc(N3CCC(OC)CC3)c2n1 (stereo not shown) [Compound 136, (1-(2,6-bis(bis(2-methoxyethyl)amino)-8-(4-methoxypiperidin-1-yl)pyrimido[5,4-d]pyrimidin-4-yl)pyrrolidin-3-yl)methanol]",< 100
9,"COCCN(CCOC)c1nc(N2CCC(OC)CC2)c2nc(N(CCO)CCO)nc(N3CC(=O)N4CCCC4C3)c2n1 (stereo not shown) [Compound 313, 2-(2-(bis(2-hydroxyethyl)amino)-6-(bis(2-methoxyethyl)amino)-8-(4-methoxypiperidin-1-yl)pyrimido[5,4-d]pyrimidin-4-yl)hexahydropyrrolo[1,2-a]pyrazin-4(1H)-one]",100 to 500
10,"COCCN(CCOC)c1nc(N2CCCC(F)(F)C2)c2nc(N(CCOC)CCOC)nc(N3CCCC(F)(F)C3)c2n1 [Compound 33, 4,8-bis(3,3-difluoropiperidin-1-yl)-N2,N2,N6,N6-tetrakis(2-methoxyethyl)pyrimido[5,4-d]pyrimidine-2,6-diamine]",< 100
11,"COCCN(CCOC)c1nc(N2CCN(c3cccnc3)CC2)c2nc(N(CCOC)CCOC)nc(N3CCC(OC)CC3)c2n1 [Compound 118, N2,N2,N6,N6-tetrakis(2-methoxyethyl)-4-(4-methoxypiperidin-1-yl)-8-(4-(pyridin-3-yl)piperazin-1-yl)pyrimido[5,4-d]pyrimidine-2,6-diamine]",100 to 500
12,"COCCN(CCOC)c1nc(N2CCN(c3ncn(C)n3)CC2)c2nc(N(CCOC)CCOC)nc(NCc3cccc(OC(F)(F)F)c3)c2n1 [Compound 223, N2,N2,N6,N6-tetrakis(2-methoxyethyl)-8-(4-(1-methyl-1H-1,2,4-triazol-3-yl)piperazin-1-yl)-N4-(3-(trifluoromethoxy)benzyl)pyrimido[5,4-d]pyrimidine-2,4,6-triamine]",< 100
13,"COCCN(CCOC)c1nc(N2CCN(C)C(=O)C2)c2nc(N(CCOC)CCOC)nc(NCc3cccc(Cl)c3)c2n1 [Compound 208, 4-(2,6-bis(bis(2-methoxyethyl)amino)-8-((3-chlorobenzyl)amino)pyrimido[5,4-d]pyrimidin-4-yl)-1-methylpiperazin-2-one]",< 100
14,"COCCN(CCOC)c1nc(NCc2cccc(F)c2)c2nc(N(CCO)CCO)nc(N3CCC(OC)CC3)c2n1 [Compound 324, 2,2′-((6-(bis(2-methoxyethyl)amino)-8-((3-lluorobenzyl)amino)-4-(4-methoxypiperidin-1-yl)pyrimido[5,4-d]pyrimidin-2-yl)azanediyl)bis(ethan-1-ol)]",< 100
15,"COCCN(CCOC)c1nc(N2CCN(C)C(=O)C2)c2nc(N(CCOC)CCOC)nc(N3CCN(C)C(=O)C3)c2n1 [Compound 187, 4,4′-(2,6-bis(bis(2-methoxyethyl)amino)pyrimido[5,4-d]pyrimidine-4,8-diyl)bis(1-methylpiperazin-2-one)]",100 to 500
16,"COCCN(CCOC)c1nc(N2CCN(c3ncn(C)n3)CC2)c2nc(N(CCOC)CCOC)nc(N(C)Cc3cccc(S(C)(=O)=O)c3)c2n1 [Compound 246, N2,N2,N6,N6-tetrakis(2-methoxyethyl)-N4-methyl-8-(4-(1-methyl-1H-1,2,4-triazol-3-yl)piperazin-1-yl)-N4-(3-(methylsulfonyl)benzyl)pyrimido[5,4-d]pyrimidine-2,4,6-triamine]",500 to 1000
17,"COCCN(CCOC)c1nc(N2CCC3(CC2)NC(=O)NC3=O)c2nc(N(CCOC)CCOC)nc(N3CCC(OC)CC3)c2n1 [Compound 117, 8-(2,6-bis(bis(2-methoxyethyl)amino)-8-(4-methoxypiperidin-1-yl)pyrimido[5,4-d]pyrimidin-4-yl)-1,3,8-triazaspiro[4.5]decane-2,4-dione]",500 to 1000
18,"COCCN(Cc1ccc(OC)c(OC)c1OC)c1nc(N2CCC(OC)CC2)c2nc(N(CCO)CCO)nc(N3CCN(C)C(=O)C3)c2n1 [Compound 304, 4-(2-(bis(2-hydroxyethyl)amino)-6-((2-methoxyethyl)(2,3,4-trimethoxybenzyl)amino)-8-(4-methoxypiperidin-1-yl)pyrimido[5,4-d]pyrimidin-4-yl)-1-methylpiperazin-2-one]",< 100
19,"COCCN(CCOC)c1nc(N2CCn3nc(C)nc3C2)c2nc(N(CCO)CCO)nc(N3CCC(OC)CC3)c2n1 [Compound 323, 2,2′-((6-(bis(2-methoxyethyl)amino)-4-(4-methoxypiperidin-1-yl)-8-(2-methyl-5,6-dihydro-[1,2,4]triazolo[1,5-a]pyrazin-7(8H)-yl)pyrimido[5,4-d]pyrimidin-2-yl)azanediyl)bis(ethan-1-ol)]",100 to 500
20,"COCCN(CCOC)c1nc(N2CCC(OC)CC2)c2nc(NCCCn3ccnc3)nc(N3CCC(OC)CC3)c2n1 [Compound 134, N2-(3-(1H-imidazol-1-yl)propyl)-N6,N6-bis(2-methoxyethyl)-4,8-bis(4-methoxypiperidin-1-yl)pyrimido[5,4-d]pyrimidine-2,6-diamine]",500 to 1000
21,"COCCN(CCOC)c1nc(N2CCc3oc(C)nc3C2)c2nc(N(CCOC)CCOC)nc(N3CCN(C)C(=O)C3)c2n1 [Compound 256, 4-(2,6-bis(bis(2-methoxyethyl)amino)-8-(2-methyl-6,7-dihydrooxazolo[4,5-c]pyridin-5(4H)-yl)pyrimido[5,4-d]pyrimidin-4-yl)-1-methylpiperazin-2-one]",< 100
22,"COCCN(CCOC)c1nc(N2CCC(OC)CC2)c2nc(N(CCOC)CCOC)nc(N3CCC(F)CC3)c2n1 [Compound 108, 4-(4-fluoropiperidin-1-yl)-N2,N2,N6,N6-tetrakis(2-methoxyethyl)-8-(4-methoxypiperidin-1-yl)pyrimido[5,4-d]pyrimidine-2,6-diamine]",< 100
23,"CCN(CC)c1nc(N(CCOC)CCOC)nc2c(N3CCC(OC)CC3)nc(N(CCOC)CCOC)nc12 [Compound 85, N4,N4-diethyl-N2,N2,N6,N6-tetrakis(2-methoxyethyl)-8-(4-methoxypiperidin-1-yl)pyrimido[5,4-d]pyrimidine-2,4,6-triamine]",< 100
24,"COCCN(CCOC)c1nc(NCc2cccc(C#N)c2)c2nc(N(CCO)CCO)nc(N3CCC(OC)CC3)c2n1 [Compound 325, 3-(((6-(bis(2-hydroxyethyl)amino)-2-(bis(2-methoxyethyl)amino)-8-(4-methoxypiperidin-1-yl)pyrimido[5,4-d]pyrimidin-4-yl)amino)methyl)benzonitrile]",< 100
25,"COCCN(CCOC)c1nc(N2CCN(C)C(=O)C2)c2nc(N(CCOC)CCn3ccnc3)nc(N3CCC(OC)CC3)c2n1 [Compound 286, 4-(6-((2-(1H-imidazol-1-yl)ethyl)(2-methoxyethyl)amino)-2-(bis(2-methoxyethyl)amino)-8-(4-methoxypiperidin-1-yl)pyrimido[5,4-d]pyrimidin-4-yl)-1-methylpiperazin-2-one]",100 to 500
